The results in this text go back to article PMC12528653, “Functional characterization of key enzymes involved in the biosynthesis of distinctive flavonoids and stilbenoids in Morus notabilis” (Horticulture Research, 2025).

Holding throughout (test): HPLC product assay, relative activity vs wild type
Holding throughout (format): biochemical

Assay [1] addresses T1, MnFLS (Morus notabilis, UniProt W9RQ78, K202V).
T1 construct: gene L484_013110; full-length ORF (1008 bp, 335 aa) in pET32a, E. coli BL21(DE3), purified recombinant
The following applies: 100 μM substrate; 2-oxoglutarate, ascorbate, FeSO4; Tris-HCl pH 7.0, 30°C, 1 h.

In assay [2] the target is T2, MnFLS (Morus notabilis, UniProt W9RQ78, T117I).
T2 construct: gene L484_013110; full-length ORF (1008 bp, 335 aa) in pET32a, E. coli BL21(DE3), purified recombinant
The following applies: 100 μM substrate; 2-oxoglutarate, ascorbate, FeSO4; Tris-HCl pH 7.0, 30°C, 1 h.

The target in assay [3] is T3, MnFLS (Morus notabilis, UniProt W9RQ78, T117S).
T3 construct: gene L484_013110; full-length ORF (1008 bp, 335 aa) in pET32a, E. coli BL21(DE3), purified recombinant
The note with it: 100 μM substrate; 2-oxoglutarate, ascorbate, FeSO4; Tris-HCl pH 7.0, 30°C, 1 h.

Assay [4] concerns the target T4, MnFLS (Morus notabilis, UniProt W9RQ78, L224M).
T4 construct: gene L484_013110; full-length ORF (1008 bp, 335 aa) in pET32a, E. coli BL21(DE3), purified recombinant
The note with it: 100 μM substrate; 2-oxoglutarate, ascorbate, FeSO4; Tris-HCl pH 7.0, 30°C, 1 h; wild-type residue also printed as Met224.

T4 sequence (W9RQ78 entry or part of it L224M): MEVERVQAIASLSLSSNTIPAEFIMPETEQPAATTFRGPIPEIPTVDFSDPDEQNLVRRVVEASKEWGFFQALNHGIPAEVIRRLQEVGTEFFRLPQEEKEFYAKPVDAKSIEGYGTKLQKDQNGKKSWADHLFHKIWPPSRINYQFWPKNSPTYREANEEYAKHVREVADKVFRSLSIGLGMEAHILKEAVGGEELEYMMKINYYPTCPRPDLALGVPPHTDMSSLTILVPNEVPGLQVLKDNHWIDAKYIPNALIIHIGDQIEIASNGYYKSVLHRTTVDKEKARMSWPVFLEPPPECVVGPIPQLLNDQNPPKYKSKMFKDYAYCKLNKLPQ
T3 sequence (W9RQ78 entry or part of it T117S): as the sequence (W9RQ78 entry or part of it L224M) above, with T117S, M224L counted along it
T2 sequence (W9RQ78 entry or part of it T117I): as the sequence (W9RQ78 entry or part of it L224M) above, with T117I, M224L counted along it
T1 sequence (W9RQ78 entry or part of it K202V): as the sequence (W9RQ78 entry or part of it L224M) above, with K202V, M224L counted along it

On to `O=C1c2c(O)cc(O)cc2O[C@H](c2ccc(O)cc2)[C@H]1O` [dihydrokaempferol], for which the “HPLC product assay, relative activity vs wild type” value in assay [1] is “the mutant K202V suffered an almost complete loss of enzymatic function”; in assay [2], “replacing the Thr117 with Ile led to reduced activity”; in assay [3] it was “T117S resulted in significant enhancement of activity for both naringenin and dihydrokaempferol as substrates”; in assay [4], “The variant L224M facilitated the conversion of dihydrokaempferol to kaempferol”.
With `O=C1C[C@@H](c2ccc(O)cc2)Oc2cc(O)cc(O)c21` [naringenin], the “HPLC product assay, relative activity vs wild type” value was “the mutant K202V suffered an almost complete loss of enzymatic function” in assay [1]; “replacing the Thr117 with Ile led to reduced activity” in assay [2]; “T117S resulted in significant enhancement of activity for both naringenin and dihydrokaempferol as substrates” in assay [3]; “promoted an increased synthesis of dihydrokaempferol and kaempferol from naringenin” in assay [4].
